Measured values: PMC5943252, “Contrasting roles for actin in the cellular uptake of cell penetrating peptide conjugates” (Scientific Reports, 2018)

Legend:
A431 cells [1] = experiment: Live cell confocal microscopy of uptake of endocytic probes and R8 conjugates, with or without actin inhibitors; format: cell-based; conditions: 0.5 µM Lat B, 30 min preincubation, then 2 µM EGFP-R8 for 1 hr with Lat B
Description: HeLa or A431 cells were seeded on 35 mm MatTek dishes (Ashland, US) at respective densities of 5 × 10^5 cells/dish and 1.0 × 10^6 cells/dish and maintained in 2.5 mL D-MEM containing 10%, 100 IU/mL penicillin and 100 µg/mL streptomycin. Cells were then allowed to adhere for 24 hr at 37 °C/5% CO2 to reach a confluence of ~80%. On the day of experimentation, they were washed with PBS and then incubated with 100 µl serum-free D-MEM (thus reducing well described serum binding effects[32]) containing either 2 µM CPP conjugate (R8-Alexa488 or EGFP-R8), 5 µg/ml transferrin-Alexa 647 (TF-647) or 0.1 mg/ml dextran (10 kDa)-Alexa 647 (Dex-647). The cells were then incubated for 1 hr (or 30 min for TF-647) at 37 °C/5% CO2 before washing 3x with PBS (TF-647 or Dex-647) or PBS 0.5 mg/mL heparin (R8-conjugates). They were then washed once with PBS, prior to the addition of 2 mL of imaging medium (phenol red free RPMI, 20 mM HEPES pH 7.4) and analysis by live cell confocal microscopy.
Cells were seeded on MatTek dishes as previously described and were washed with PBS before preincubation at 37 °C with diluent control (DMSO) or actin inhibitors: 10 µM Cyt D for 15 min; 0.1–1 µM Lat B for 30 min; 0.2–4 µM JAS for 45 min; 50–100 µM Y27632 for 4 hr in serum-free D-MEM at 37 °C/5% CO2. Endocytic probes (TF-647, Dex-647) or R8-conjugates were then incubated with the cells in the absence (control) or presence of the inhibitors and further incubated at 37 °C/5% CO2 for times specified in figure legends prior to analysis by confocal microscopy. For pulse chase experiments, A431 cells were incubated with 0.1 mg/ml Dex-647 for 2 hr (pulse) followed by washing and a further 4 hr (chase) in fresh complete growth medium. EGFP-R8 (2 µM) was then added for 1 hr in the absence or presence of 10 µM Cyt D. EGFP-R8 and Dex-647 subcellular distribution was then analysed in live cells using confocal microscopy. For low temperature experiments, cells were preincubated with Cyt D as above and then placed on ice for 2 min prior to addition of ice cold EGFP-R8. The cells were then maintained under these conditions for 1 hr prior to analysis by confocal microscopy.
Analysis was performed on a Leica SP5 confocal laser scanning microscope, equipped with laser lines: 405 Blue Diode (Excitation wavelength 405 nm for Hoechst 33342) Argon (Excitation wavelength 488 nm for Alexa 488 or EGFP), Helium Neon Laser 1 (Excitation wavelength 543 nm for Tetramethyl-Rhodamine Phalloidin (Rh-P)) and Laser 2 (Excitation wavelength 633 nm for Alexa 647 conjugates). All images presented in this study were obtained using a HCX PL APO 63x 1.4 NA oil immersion objective with Leica Type F immersion oil. Parameters “Gain” and “Off-set” of the individual photomultiplier tubes were adjusted between experiments in order to obtain optimal image acquisition avoiding saturation. For multi-channel image acquisition, the channels were scanned in a sequential recording mode to avoid spectral cross-talk caused by overlapping excitation and/or emission spectra of fluorophores. Acquisition mode “XYZ” and image resolutions (pixels/image) of 512 × 512 or 1024 × 1024 were selected and pinhole size was set to 1 Airy Unit. Depending on acquisition requirements the scan speed was set as either 400 or 700 Hz and for single section images, the same optical section was scanned 3x to generate a line average image. Captured images were then analysed using ImageJ. […]

[2] = test system: actin architecture in A431 cells; experiment: Actin cytoskeleton visualisation (Rh-P staining, confocal microscopy); format: cell-based; conditions: A431 cells, Rh-P staining; for effect on actin cytoskeleton: 30 min; for effect on organisation of the actin cytoskeleton: 4 hr
Description: Analysis was performed on a Leica SP5 confocal laser scanning microscope, equipped with laser lines: 405 Blue Diode (Excitation wavelength 405 nm for Hoechst 33342) Argon (Excitation wavelength 488 nm for Alexa 488 or EGFP), Helium Neon Laser 1 (Excitation wavelength 543 nm for Tetramethyl-Rhodamine Phalloidin (Rh-P)) and Laser 2 (Excitation wavelength 633 nm for Alexa 647 conjugates). All images presented in this study were obtained using a HCX PL APO 63x 1.4 NA oil immersion objective with Leica Type F immersion oil. Parameters “Gain” and “Off-set” of the individual photomultiplier tubes were adjusted between experiments in order to obtain optimal image acquisition avoiding saturation. For multi-channel image acquisition, the channels were scanned in a sequential recording mode to avoid spectral cross-talk caused by overlapping excitation and/or emission spectra of fluorophores. Acquisition mode “XYZ” and image resolutions (pixels/image) of 512 × 512 or 1024 × 1024 were selected and pinhole size was set to 1 Airy Unit. Depending on acquisition requirements the scan speed was set as either 400 or 700 Hz and for single section images, the same optical section was scanned 3x to generate a line average image. Captured images were then analysed using ImageJ. In some cases (live cell imaging) the same cells were also imaged using […] microscopy (DIC).
A recently described method was utilised giving information on actin architecture at different regions of the cells termed basal and cell body and apex (CBA). For actin staining, HeLa (0.5 × 10^6 cells/well) or A431 (1.0 × 10^6 cells/well) cells in 2.5 mL D-MEM containing 10% FBS were seeded on round borosilicate No.1.5 cover slips in 6 –well plates and allowed to adhere for 24 hr at 37 °C/5% CO2, to reach a confluence of ~80%. The cells were then treated with actin disrupters as described above, washed 3x with PBS and fixed for 15 min at room temperature with 3% PFA in PBS. Cells were then washed 3x with PBS and permeabilised with 0.2% Triton X-100 in PBS at room temperature for 5 min, washed 3x with PBS and stained for cell nuclei with 1.0 µg/ml Hoechst 33342 in PBS and for polymerised actin with 1.0 µg/ml Rh-P in PBS for 15 min at room temperature. The cells were finally washed 3x with PBS and once with distilled water, coverslips were mounted in DAKO mounting medium on glass microscope slides and imaged by confocal microscopy.

A431 cells [3] = experiment: Flow cytometry of cellular uptake of EGFP-R8 in the presence of actin inhibitors; format: cell-based; conditions: for Normalised Fluoresence Intensity (EGFP-R8): three independent experiments
Description: A431 cells were seeded onto 12-well plates and cultured for 24 hr to be ~80% confluent on the day of experiment. Cells were washed twice with PBS and then incubated with diluent control (DMSO/dH2O) or actin inhibitors as previously described. They were then loaded with serum-free DMEM containing either 2 µM EGFP-R8, 5 µg/ml TF-647 or 0.1 mg/ml Dex-647 in the presence or absence of actin inhibitors for times stipulated in the figure legends. The plates were then placed on ice to prevent further uptake and washed 3x with either ice-cold PBS or 0.5 mg/ml heparin in PBS. To remove the plasma membrane bound TF, cells were washed 3x with ice-cold PBS followed by an incubation for 1 min in ice-cold acid wash (0.2 M acetic acid, 0.2 M NaCl, pH 2.0)[33]. All cells were then washed twice with PBS at room temperature before trypsinisation at 37 °C for 5 min before placing the detached cells in centrifuge tubes and centrifuging at 4 °C for 3 min at 800 × g. The obtained cell suspension was washed 3x with ice-cold PBS and finally resuspended in 300 µl ice-cold PBS for measurement of cell-associated fluorescence (cell gate 50,000 cells) by flow cytometry on a BD FACSVerse utilising a 488 laser and 527/32 filter for EGFP analysis and a 633 nm laser and 660/10 filter for Alexa 647. Cells were gated using FSC-A/SSC-A to isolate single cell populations and analysed using FlowJo.
Flow cytometry measurements represent the mean fluorescence from three independent experiments performed in duplicate, where each individual data point was the geometric mean. A two-tailed unpaired Students t-test was used to test for differences within experiments. Significant differences were classed as having a P value of < 0.05.

macrophages = conditions: cited from earlier work
Source text: Through interaction with the Rho GTPase, ROCKs play a central role in actin network assembly and membrane association. In A431 cells the effects of Y27632 on the actin cytoskeleton was more subtle than that observed with the agents that directly targeted actin. […] In contrast to results o ...

SMILES	effect on cell associated EGFP-R8 fluorescence (A431 cells [1])	effect on actin cytoskeleton ([2]; 0.1 μM Lat B, basal and CBA sections)	effect on actin cytoskeleton ([2]; 0.5 μM Lat B)	effect on actin cytoskeleton ([2]; 1 μM Lat B)	fold increase in uptake (EGFP-R8) (A431 cells [3]; 0.5 µM Lat B, 30 min preincubation, then 2 µM EGFP-R8 for 1 hr with Lat B, heparin wash, vs diluent control, P = 0.0045) [fold]	Normalised Fluoresence Intensity (EGFP-R8) (A431 cells [3]; 0.5 µM Lat B, 30 min preincubation, then 2 µM EGFP-R8 for 1 hr with Lat B, mean of geometric means)	effect on organisation of the actin cytoskeleton ([2]; Y27632 1 and 10 μM (up to 10 μM))	effect on organisation of the actin cytoskeleton ([2]; Y27632 at higher concentrations (50, 100 μM))	inhibition of cell uptake of EGFP-R8 (A431 cells [3]; 100 µM Y27632, 4 hr preincubation, then 2 µM EGFP-R8 for 1 hr with Y27632, P = 0.02)	Normalised Fluoresence Intensity (EGFP-R8) (A431 cells [3]; 100 µM Y27632, 4 hr preincubation, then 2 µM EGFP-R8 for 1 hr with Y27632, mean of geometric means)	inhibition of uptake of 70 KDa dextran (macrophages)
C/C1=C/C(=O)O[C@@H]2C[C@@H](CC[C@H](C)/C=C\CC1)O[C@@](O)([C@@H]1CSC(=O)N1)C2 [Lat B, Latrunculin B]	much higher fluorescence compared to controls	formation of small actin aggregates	these aggregates were extremely prominent	major disruption of the actin organisation	6.23	6.23					
C[C@@H](N)[C@H]1CC[C@H](C(=O)Nc2ccncc2)CC1.Cl.Cl (relative stereo) [Y27632, (+)-(R)-trans-4-(1-aminoethyl)-N-(4-pyridyl) cyclohexanecarboxamide dihydrochloride]							no visible changes in the organisation of the actin cytoskeleton	extensive actin deformities	~ 20%	0.77	~ 50%
